Reference: ChEMBL document CHEMBL1201862, “PubChem BioAssay data set” (2004)
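Growth conditions: 96-well plates. Treatment: test compound, 48 hours, 5 concentrations. Analysis: linear interpolation between bracketing concentrations; unreached endpoints set to highest concentration. GI50: concentration for 50% inhibition of growth.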 Activity calls are given as the source filed them. Rule as the data show it: active = GI50 up to about 1.1 µM and inactive = higher.

What was measured:
Test in all cases: inhibition of tumour cell growth, NCI panel, 48 h
[1] = system: M14
[2] = system: K562
[3] = system: OVCAR-3
[4] = system: ACHN
[5] = system: RXF 393
[6] = system: A498
[7] = system: UO-31
[8] = system: A549
[9] = system: MDA-MB-435
[10] = system: HL-60
[11] = system: SN12C
[12] = system: HOP-92
[13] = system: SF-295
[14] = system: SK-MEL-28
[15] = system: NCI-H522
[16] = system: IGROV-1
[17] = system: UACC-62
[18] = system: DU-145
[19] = system: SNB-75
[20] = system: SF-539

SMILES	GI50 [1]	GI50 [2]	GI50 [3]	GI50 [4]	GI50 [5]	GI50 [6]	GI50 [7]	GI50 [8]	GI50 [9]	GI50 [10]	GI50 [11]	GI50 [12]	GI50 [13]	GI50 [14]	GI50 [15]	GI50 [16]	GI50 [17]	GI50 [18]	GI50 [19]	GI50 [20]
CC(=O)NC(Cc1c[nH]c2ccccc12)C(=O)O (stereo not drawn)	> 100 µM (inactive)	> 100 µM (inactive)	> 100 µM (inactive)	> 100 µM (inactive)	> 100 µM (inactive)	> 100 µM (inactive)	> 100 µM (inactive)	> 100 µM (inactive)	> 100 µM (inactive)	> 100 µM (inactive)	> 100 µM (inactive)	> 100 µM (inactive)	> 100 µM (inactive)	> 100 µM (inactive)	> 100 µM (inactive)	> 100 µM (inactive)	> 100 µM (inactive)	> 100 µM (inactive)		
C/C=C1/CC(C(=O)OC)N(C(=O)OCc2ccccc2)C1=S (stereo not drawn)	> 100 µM (inactive)	> 100 µM (inactive)	> 100 µM (inactive)	> 100 µM (inactive)	> 100 µM (inactive)	> 100 µM (inactive)	> 100 µM (inactive)	> 100 µM (inactive)	> 100 µM (inactive)			> 100 µM (inactive)	> 100 µM (inactive)	> 100 µM (inactive)	> 100 µM (inactive)	> 100 µM (inactive)	> 100 µM (inactive)	> 100 µM (inactive)	> 100 µM (inactive)	
COC(=O)c1ccc(NC(=O)O/N=C(\Cl)C(C)C)cc1	2.99 µM (inactive)	1.3 µM (inactive)	1.97 µM (inactive)	1.74 µM (inactive)	6.21 µM (inactive)	18.4 µM (inactive)	15.4 µM (inactive)	19.5 µM (inactive)	11.3 µM (inactive)	1.36 µM (inactive)	6.19 µM (inactive)	1.81 µM (inactive)	17.7 µM (inactive)	4.84 µM (inactive)	0.32 µM (active)	13.9 µM (inactive)	13.1 µM (inactive)	18.5 µM (inactive)	7.78 µM (inactive)	
CNC(=O)OCC1=C(COC(=O)NC)C(C)N(c2ccccc2)C1 (stereo not drawn)	30.1 µM (inactive)	26.7 µM (inactive)	30.4 µM (inactive)	33.7 µM (inactive)	28.4 µM (inactive)	3.05 µM (inactive)	22.9 µM (inactive)	48 µM (inactive)	38.3 µM (inactive)	21.7 µM (inactive)	72.9 µM (inactive)	28.8 µM (inactive)	33.7 µM (inactive)	35.3 µM (inactive)		26.2 µM (inactive)	26.2 µM (inactive)	54.5 µM (inactive)	39.4 µM (inactive)	23.3 µM (inactive)
CCc1ccc2c(c1)/C(=C1/Nc3ccccc3C1=O)C(=O)N2	26.7 µM (inactive)	22.3 µM (inactive)	20.6 µM (inactive)	5.66 µM (inactive)	15.1 µM (inactive)	4.13 µM (inactive)	7.38 µM (inactive)	13.8 µM (inactive)	25.5 µM (inactive)		68.2 µM (inactive)	33.3 µM (inactive)	20.2 µM (inactive)	96.6 µM (inactive)	19.5 µM (inactive)	0.124 µM (active)	15.4 µM (inactive)	41.3 µM (inactive)	22.3 µM (inactive)	
Nc1nc(N)c2ncn(-c3ccc(Cl)c(Cl)c3)c2n1	42.7 µM (inactive)		14.5 µM (inactive)	42.2 µM (inactive)	12.7 µM (inactive)	13.3 µM (inactive)	18.5 µM (inactive)	30.8 µM (inactive)	33.7 µM (inactive)		15.8 µM (inactive)	52.7 µM (inactive)	28.1 µM (inactive)	60.5 µM (inactive)	28.4 µM (inactive)	16.2 µM (inactive)	10.1 µM (inactive)	18.5 µM (inactive)	< 0.01 µM (active)	21 µM (inactive)
COc1ccc(P2(=S)OCCOP(=S)(c3ccc(OC)cc3)S2)cc1 (stereo not drawn)	5.14 µM (inactive)	2.51 µM (inactive)	2.52 µM (inactive)	5.98 µM (inactive)		2.45 µM (inactive)	0.638 µM (active)	3.01 µM (inactive)	1.39 µM (inactive)	2.64 µM (inactive)	2.56 µM (inactive)	10.4 µM (inactive)	2.53 µM (inactive)	18.4 µM (inactive)	2.2 µM (inactive)	4.03 µM (inactive)	4.16 µM (inactive)	3.74 µM (inactive)	> 52.7 µM (inactive)	2.76 µM (inactive)
COC1(C2c3ccccc3CCN2C(=O)OC(C)(C)C)C(=O)C(c2ccccc2)=C1N(C)C (stereo not drawn)	27.3 µM (inactive)		27.7 µM (inactive)	33.5 µM (inactive)	30.2 µM (inactive)	25.4 µM (inactive)	26.8 µM (inactive)	27.5 µM (inactive)	22.9 µM (inactive)	19.7 µM (inactive)	17.1 µM (inactive)	44.8 µM (inactive)	30.8 µM (inactive)	62.4 µM (inactive)	21.2 µM (inactive)		30.5 µM (inactive)	55.8 µM (inactive)	43.6 µM (inactive)	19.1 µM (inactive)
Cn1c(=O)c2c(nc3n2CCC(=O)N3CCCCl)n(C)c1=O	> 100 µM (inactive)	> 100 µM (inactive)	> 100 µM (inactive)	> 100 µM (inactive)		> 100 µM (inactive)	> 100 µM (inactive)	> 100 µM (inactive)	> 100 µM (inactive)	> 100 µM (inactive)	> 100 µM (inactive)	> 100 µM (inactive)	> 100 µM (inactive)	> 100 µM (inactive)		> 100 µM (inactive)	> 100 µM (inactive)	> 100 µM (inactive)	> 100 µM (inactive)	
Cc1ccc(S(=O)(=O)NN=C2C(C)CC(C(C)(C)C)CC2C)cc1 (stereo not drawn)	13.5 µM (inactive)	21 µM (inactive)	16.6 µM (inactive)			17.4 µM (inactive)	21 µM (inactive)	17.9 µM (inactive)	20 µM (inactive)	25.9 µM (inactive)	18.4 µM (inactive)	15.5 µM (inactive)	18.1 µM (inactive)	20 µM (inactive)	18.6 µM (inactive)	38.9 µM (inactive)	32.3 µM (inactive)	19.7 µM (inactive)	20.4 µM (inactive)	95.1 µM (inactive)
C=C[C@@]1(C)CC[C@@H]2[C@@]3(C1)O[C@H]3CC1[C@](C)(C(=O)OC)CCC[C@@]12C (stereo partly drawn)	19.6 µM (inactive)	32.8 µM (inactive)	17 µM (inactive)	16.1 µM (inactive)	16.1 µM (inactive)	32.5 µM (inactive)	17.9 µM (inactive)	23.1 µM (inactive)	34 µM (inactive)			16.7 µM (inactive)	15 µM (inactive)	21.1 µM (inactive)	16.9 µM (inactive)	25.6 µM (inactive)	27 µM (inactive)	30.4 µM (inactive)	37.8 µM (inactive)	
O=c1[nH]c(=O)n(COCc2ccccc2)c2ccc(Br)cc12	> 100 µM (inactive)	> 100 µM (inactive)	85.3 µM (inactive)	27.5 µM (inactive)	> 100 µM (inactive)	> 100 µM (inactive)	> 100 µM (inactive)	> 100 µM (inactive)	> 100 µM (inactive)	> 100 µM (inactive)	> 100 µM (inactive)	> 100 µM (inactive)	87.7 µM (inactive)	> 100 µM (inactive)		> 100 µM (inactive)	> 100 µM (inactive)	> 100 µM (inactive)	43.4 µM (inactive)	> 100 µM (inactive)
CC(O)(C(=O)N(O)c1ccc(Cl)cc1)c1ccc(Cl)cc1 (stereo not drawn)	34 µM (inactive)	17.3 µM (inactive)	25.2 µM (inactive)	18.7 µM (inactive)	26.8 µM (inactive)	25.5 µM (inactive)	26.1 µM (inactive)	26.4 µM (inactive)	24.7 µM (inactive)	14.7 µM (inactive)	37.4 µM (inactive)	20.3 µM (inactive)	27.3 µM (inactive)	33.3 µM (inactive)	18.6 µM (inactive)	19.9 µM (inactive)	31.9 µM (inactive)	34.4 µM (inactive)		32.5 µM (inactive)
O=C(NC/C(Cl)=C/Cl)Nc1c2ccccc2nc2ccccc12	84.5 µM (inactive)		44.5 µM (inactive)	80.5 µM (inactive)	> 100 µM (inactive)	67.1 µM (inactive)	> 100 µM (inactive)	> 100 µM (inactive)	> 100 µM (inactive)		69.7 µM (inactive)	41.6 µM (inactive)	> 100 µM (inactive)	> 100 µM (inactive)	> 100 µM (inactive)	35.5 µM (inactive)	> 100 µM (inactive)	54.5 µM (inactive)	> 100 µM (inactive)	25.1 µM (inactive)
CC(=O)OCC(OC(C)=O)C1C[C@H]2O[C@@H]3[C@H](C[C@H]2O1)O[C@@]1(C[C@@H]3C)C[C@H](C)[C@@H]2O[C@]3(C[C@@H]2O1)C[C@H]1O[C@H]2[C@H](C)[C@H]4OC(=O)C[C@H]5CC[C@@H]6OC7[C@H]8O[C@]9(CC[C@H]%10CC(=O)[C@H](CC[C@H]%11C[C@@H](C)C(=O)C(C[C@@H]4O[C@H]2C[C@H]1O3)O%11)O%10)CC8O[C@@H]7[C@@H](O9)[C@H]6O5 (stereo partly drawn)	0.00619 µM (active)	0.00123 µM (active)	0.00319 µM (active)	0.0627 µM (active)	0.00283 µM (active)	> 0.434 µM (active)	0.0388 µM (active)	0.00501 µM (active)	0.000195 µM (active)	0.000489 µM (active)	0.0142 µM (active)	0.0611 µM (active)	0.00242 µM (active)	0.011 µM (active)	0.00051 µM (active)	0.00322 µM (active)	0.00248 µM (active)	0.00423 µM (active)	0.00265 µM (active)	
